Columns and labels:
Format in all cases: cell-based
[1] = target: T1, NK2 (Homo sapiens, UniProt P21452); experiment: Signal transduction (ST), intracellular Ca++ (FLIPR), NK2; conditions: antagonist, read-out: NK2 pIC50 (converted)
T1 sequence (P21452 1-398): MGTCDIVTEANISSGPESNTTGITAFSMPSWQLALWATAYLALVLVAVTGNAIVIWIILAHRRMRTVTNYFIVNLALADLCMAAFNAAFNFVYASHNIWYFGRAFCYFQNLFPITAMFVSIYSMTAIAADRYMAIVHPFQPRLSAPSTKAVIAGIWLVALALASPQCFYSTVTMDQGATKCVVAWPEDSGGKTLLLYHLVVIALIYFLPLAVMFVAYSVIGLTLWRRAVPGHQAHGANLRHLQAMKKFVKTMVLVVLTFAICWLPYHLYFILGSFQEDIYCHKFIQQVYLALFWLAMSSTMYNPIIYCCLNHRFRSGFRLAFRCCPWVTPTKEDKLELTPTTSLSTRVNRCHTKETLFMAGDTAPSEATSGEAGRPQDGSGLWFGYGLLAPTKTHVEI

[2] = target: NK1 (Homo sapiens, UniProt P25103); experiment: Signal transduction (ST), intracellular Ca++ (FLIPR), functional NK1 antagonistic activity; conditions: antagonist, read-out: NK1 pIC50 (converted)
Summary of the method: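 Confluent cells were loaded with 2 μM Fluo3 for 1 h at 37° C, then washed into Krebs buffer pH 7.4 with 1.25 mM CaCl2 and 2.5 mM probenecid. Antagonists were preincubated 20 min at RT before agonist addition. Peak Ca++ transients were read by FLIPR, with EC50 or IC50 from sigmoidal non-linear regression.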

[3] = target: T2, NK3 (Homo sapiens, UniProt P29371); experiment: Signal transduction (ST), intracellular Ca++ (FLIPR), NK3; conditions: antagonist, read-out: NK3 pIC50 (converted)
T2 sequence (P29371 1-465): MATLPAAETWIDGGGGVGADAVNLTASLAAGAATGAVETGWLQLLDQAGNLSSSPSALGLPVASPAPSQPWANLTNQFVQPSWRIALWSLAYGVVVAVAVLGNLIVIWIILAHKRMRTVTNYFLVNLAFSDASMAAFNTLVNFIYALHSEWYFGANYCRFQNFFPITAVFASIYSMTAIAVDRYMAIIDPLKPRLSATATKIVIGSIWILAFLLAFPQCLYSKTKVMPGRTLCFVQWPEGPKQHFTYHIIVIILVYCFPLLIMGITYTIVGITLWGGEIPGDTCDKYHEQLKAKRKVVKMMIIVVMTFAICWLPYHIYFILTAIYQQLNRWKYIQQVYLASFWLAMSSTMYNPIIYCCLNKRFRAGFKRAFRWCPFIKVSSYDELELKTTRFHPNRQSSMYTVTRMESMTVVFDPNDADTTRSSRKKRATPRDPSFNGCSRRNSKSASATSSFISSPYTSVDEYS

NK1, sequence (P25103 whole entry): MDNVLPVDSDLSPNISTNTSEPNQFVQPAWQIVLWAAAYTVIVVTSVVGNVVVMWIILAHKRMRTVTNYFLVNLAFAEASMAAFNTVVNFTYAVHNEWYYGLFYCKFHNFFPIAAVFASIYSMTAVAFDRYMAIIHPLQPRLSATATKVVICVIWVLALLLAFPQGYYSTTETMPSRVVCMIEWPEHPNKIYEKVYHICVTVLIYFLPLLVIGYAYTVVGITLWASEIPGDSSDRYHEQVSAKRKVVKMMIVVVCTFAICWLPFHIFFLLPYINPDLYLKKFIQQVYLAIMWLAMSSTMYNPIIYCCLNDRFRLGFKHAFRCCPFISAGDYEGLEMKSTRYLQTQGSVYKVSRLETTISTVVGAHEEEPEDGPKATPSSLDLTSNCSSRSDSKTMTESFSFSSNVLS

Row | SMILES | IC50 [1] | IC50 [2] | IC50 [3]
1 | Cc1noc(C)c1C(=O)N1CCC2(CC1)CCN([C@H]1CCN(C(=O)c3cc(C(F)(F)F)cc(C(F)(F)F)c3)[C@H](Cc3ccccc3)C1)CC2 [Compound 35] | > 10000 nM | 19.1 nM | > 10000 nM
2 | O=C(c1cnc2ccccc2n1)N1CCC2(CC1)CCN([C@H]1CCN(C(=O)c3cc(C(F)(F)F)cc(C(F)(F)F)c3)[C@H](Cc3ccccc3)C1)CC2 [Compound 66] | 3720 nM | 66.1 nM | 6920 nM
3 | Cc1cccc(S(=O)(=O)N2CCC3(CCN([C@H]4CCN(C(=O)c5cc(C(F)(F)F)cc(C(F)(F)F)c5)[C@H](Cc5ccccc5)C4)CC3)CC2)c1 [Compound 104] | ~4570 nM | 64.6 nM | 1950 nM
4 | O=C(C1CCOC1)N1CCC2(CC1)CCN([C@H]1CCN(C(=O)c3cc(C(F)(F)F)cc(C(F)(F)F)c3)[C@H](Cc3ccccc3)C1)CC2 (stereo partly drawn) [Compound 21] | 2340 nM | 16.6 nM | 2140 nM
5 | CC(=O)Nc1ccc(S(=O)(=O)N2CCC3(CCN([C@H]4CCN(C(=O)c5cc(C(F)(F)F)cc(C(F)(F)F)c5)[C@H](Cc5ccccc5)C4)CC3)CC2)cc1 [Compound 124] | ~2570 nM | 23.4 nM | 1780 nM
6 | O=C(c1cc(C(F)(F)F)cc(C(F)(F)F)c1)N1CC[C@H](N2CCC3(CC2)CCN(S(=O)(=O)c2ccc(Cl)cc2Cl)CC3)C[C@H]1Cc1ccccc1 [Compound 112] | > 10000 nM | 550 nM | > 10000 nM
7 | O=C(c1cc(C(F)(F)F)cc(C(F)(F)F)c1)N1CC[C@@H](N2CCC3(CCN(C(=O)C45CC6CC(CC(C6)C4)C5)CC3)CC2)C[C@H]1Cc1ccccc1 [Compound 59] | > 10000 nM | 347 nM | 5890 nM
8 | CC(C)(C)C(=O)N1CCC2(CC1)CCN([C@@H]1CCN(C(=O)c3cc(C(F)(F)F)cc(C(F)(F)F)c3)[C@H](Cc3ccccc3)C1)CC2 [Compound 8] | 2820 nM | 43.7 nM | 4470 nM
9 | O=C(NCC(=O)N1CCC2(CC1)CCN([C@H]1CCN(C(=O)c3cc(C(F)(F)F)cc(C(F)(F)F)c3)[C@H](Cc3ccccc3)C1)CC2)c1ccco1 [Compound 73] | > 10000 nM | 33.1 nM | > 10000 nM
10 | Cc1nnsc1C(=O)N1CCC2(CC1)CCN([C@H]1CCN(C(=O)c3cc(C(F)(F)F)cc(C(F)(F)F)c3)[C@H](Cc3ccccc3)C1)CC2 [Compound 36] | 4270 nM | 28.2 nM | > 10000 nM
11 | CC(C)(C)CC(=O)N1CCC2(CC1)CCN([C@H]1CCN(C(=O)c3cc(C(F)(F)F)cc(C(F)(F)F)c3)[C@H](Cc3ccccc3)C1)CC2 [Compound 69] | 3090 nM | 64.6 nM | 6610 nM
12 | O=C(CC1CCCCC1)N1CCC2(CC1)CCN([C@H]1CCN(C(=O)c3cc(C(F)(F)F)cc(C(F)(F)F)c3)[C@H](Cc3ccccc3)C1)CC2 [Compound 71] | 9770 nM | 93.3 nM | > 10000 nM
13 | O=C(c1cc(C(F)(F)F)cc(C(F)(F)F)c1)N1CC[C@H](N2CCC3(CCN(C(=O)C45CC6CC(CC(C6)C4)C5)CC3)CC2)C[C@H]1Cc1ccccc1 [Compound 60] | 4680 nM | 240 nM | 4680 nM
14 | O=C(Cc1ccsc1)N1CCC2(CC1)CCN([C@H]1CCN(C(=O)c3cc(C(F)(F)F)cc(C(F)(F)F)c3)[C@H](Cc3ccccc3)C1)CC2 [Compound 76] | 1150 nM | 25.7 nM | 3980 nM
15 | COc1ccc(S(=O)(=O)N2CCC3(CCN([C@H]4CCN(C(=O)c5cc(C(F)(F)F)cc(C(F)(F)F)c5)[C@H](Cc5ccccc5)C4)CC3)CC2)cc1 [Compound 121] | 1200 nM | 112 nM | 3720 nM
16 | O=C(c1cc(C(F)(F)F)cc(C(F)(F)F)c1)N1CC[C@H](N2CCC3(CC2)CCN(S(=O)(=O)c2ccc(Br)s2)CC3)C[C@H]1Cc1ccccc1 [Compound 95] | 1910 nM | 269 nM | 2340 nM
17 | O=C(CN1CCCC1=O)N1CCC2(CC1)CCN([C@H]1CCN(C(=O)c3cc(C(F)(F)F)cc(C(F)(F)F)c3)[C@H](Cc3ccccc3)C1)CC2 [Compound 78] | > 10000 nM | 269 nM | > 10000 nM
18 | O=C(c1ccc[nH]c1=O)N1CCC2(CC1)CCN([C@H]1CCN(C(=O)c3cc(C(F)(F)F)cc(C(F)(F)F)c3)[C@H](Cc3ccccc3)C1)CC2 [Compound 55] | 3980 nM | 158 nM | > 10000 nM
19 | O=C(c1cc(C(F)(F)F)cc(C(F)(F)F)c1)N1CC[C@H](N2CCC3(CC2)CCN(S(=O)(=O)c2ccc(Cl)cc2)CC3)C[C@H]1Cc1ccccc1 [Compound 108] | 2630 nM | 324 nM | 3980 nM
20 | O=C(C1=CCCCC1)N1CCC2(CC1)CCN([C@H]1CCN(C(=O)c3cc(C(F)(F)F)cc(C(F)(F)F)c3)[C@H](Cc3ccccc3)C1)CC2 [Compound 41] | 8510 nM | 148 nM | > 10000 nM
21 | CC1(C(=O)N2CCC3(CC2)CCN([C@H]2CCN(C(=O)c4cc(C(F)(F)F)cc(C(F)(F)F)c4)[C@H](Cc4ccccc4)C2)CC3)CCCCC1 [Compound 37] | 8130 nM | 95.5 nM | > 10000 nM
22 | O=C(c1cc(C(F)(F)F)cc(C(F)(F)F)c1)N1CC[C@H](N2CCC3(CC2)CCN(S(=O)(=O)c2cc(Cl)cc(Cl)c2)CC3)C[C@H]1Cc1ccccc1 [Compound 114] | > 10000 nM | 363 nM | > 10000 nM

Results, then the compound that gave them:

Row | IC50 [1] | IC50 [2] | IC50 [3] | SMILES
23 | 2510 nM | 240 nM | 5750 nM | CC(C)CN1CCC2(CCN([C@@H]3CCN(C(=O)c4cc(C(F)(F)F)cc(C(F)(F)F)c4)[C@H](Cc4ccccc4)C3)CC2)CC1=O [Compound 193]
24 | 4570 nM | 282 nM | ~10000 nM | O=C(C1CCOC1)N1CCCC2(CCCN(C3CCN(C(=O)c4cc(C(F)(F)F)cc(C(F)(F)F)c4)C(Cc4ccccc4)C3)C2)C1 (single isomer, unassigned) [Compound 211]
25 | 3390 nM | 661 nM | > 10000 nM | O=C1CC2(CCN1Cc1ccccc1F)CCN([C@@H]1CCN(C(=O)c3cc(C(F)(F)F)cc(C(F)(F)F)c3)[C@H](Cc3ccccc3)C1)CC2 [Compound 203]
26 | 6760 nM | 28.8 nM | > 10000 nM | O=C(c1ccsc1)N1CCC2(CC1)CCN(C(=O)[C@H]1CCN(C(=O)c3cc(C(F)(F)F)cc(C(F)(F)F)c3)[C@H](Cc3ccccc3)C1)CC2 [Compound 189]
27 | 1910 nM | 589 nM | 5750 nM | CC(C)(C)C(=O)N1CCCC2(CCCN([C@H]3CCN(C(=O)c4cc(C(F)(F)F)cc(C(F)(F)F)c4)[C@H](Cc4ccccc4)C3)C2)C1 (stereo partly drawn) [Compound 207]
28 | 5500 nM | 15.1 nM | 3720 nM | CC(C)(C)OC(=O)N1CCCC1C(=O)N1CCC2(CC1)CCN(C(=O)[C@H]1CCN(C(=O)c3cc(C(F)(F)F)cc(C(F)(F)F)c3)[C@H](Cc3ccccc3)C1)CC2 (stereo partly drawn) [Compound 188]
29 | 5370 nM | 562 nM | > 10000 nM | O=C(c1cc(C(F)(F)F)cc(C(F)(F)F)c1)N1CC[C@H](N2CCC3(CC2)CCN(S(=O)(=O)C=Cc2ccccc2)CC3)C[C@H]1Cc1ccccc1 [Compound 128]
30 | 1820 nM | 288 nM | 1780 nM | O=C(C1CCOC1)N1CCCC2(CCCN(C3CCN(C(=O)c4cc(C(F)(F)F)cc(C(F)(F)F)c4)C(Cc4ccccc4)C3)C2)C1 (single isomer, unassigned) [Compound 210]
31 | 3470 nM | 23.4 nM | 2450 nM | O=C(c1ccoc1)N1CCC2(CC1)CCN([C@H]1CCN(C(=O)c3cc(C(F)(F)F)cc(C(F)(F)F)c3)[C@H](Cc3ccc(F)c(F)c3)C1)CC2 [Compound 140]
32 | 4900 nM | 437 nM | > 10000 nM | O=C(c1cc(C(F)(F)F)cc(C(F)(F)F)c1)N1CC[C@H](CN2CCC3(CCN(Cc4ccccc4)CC3)CC2)C[C@H]1Cc1ccccc1 [Compound 178]
33 | 5010 nM | 17 nM | 5370 nM | O=C(C1CC1)N1CCC2(CC1)CCN(C(=O)[C@H]1CCN(C(=O)c3cc(C(F)(F)F)cc(C(F)(F)F)c3)[C@H](Cc3ccccc3)C1)CC2 [Compound 186]
34 | 2000 nM | 17 nM | 692 nM | O=C(C1CC1)N1CCC2(CC1)CCN([C@H]1CCN(C(=O)c3cc(C(F)(F)F)cc(C(F)(F)F)c3)[C@H](Cc3ccc(F)c(F)c3)C1)CC2 [Compound 136]

From patent US7544694B2, “Substituted diaza-spiro-[5.5]-undecane derivatives and their use as neurokinin antagonists” (Janssen Pharmaceutica N.V., priority 2004, dated 2009)
